Experimental data taken from patent publication US8053574B2, “Organic compounds” (Novartis AG, priority 2007, dated 2011).

Molecular target: PI3K γ (Homo sapiens, UniProt P48736)
Test: PI3 kinase phosphorylation assay (Biological Method 1), Ki γ
Format: biochemical
Details: Table 3, compounds of formula XI

Chain of PI3K γ (P48736 whole entry): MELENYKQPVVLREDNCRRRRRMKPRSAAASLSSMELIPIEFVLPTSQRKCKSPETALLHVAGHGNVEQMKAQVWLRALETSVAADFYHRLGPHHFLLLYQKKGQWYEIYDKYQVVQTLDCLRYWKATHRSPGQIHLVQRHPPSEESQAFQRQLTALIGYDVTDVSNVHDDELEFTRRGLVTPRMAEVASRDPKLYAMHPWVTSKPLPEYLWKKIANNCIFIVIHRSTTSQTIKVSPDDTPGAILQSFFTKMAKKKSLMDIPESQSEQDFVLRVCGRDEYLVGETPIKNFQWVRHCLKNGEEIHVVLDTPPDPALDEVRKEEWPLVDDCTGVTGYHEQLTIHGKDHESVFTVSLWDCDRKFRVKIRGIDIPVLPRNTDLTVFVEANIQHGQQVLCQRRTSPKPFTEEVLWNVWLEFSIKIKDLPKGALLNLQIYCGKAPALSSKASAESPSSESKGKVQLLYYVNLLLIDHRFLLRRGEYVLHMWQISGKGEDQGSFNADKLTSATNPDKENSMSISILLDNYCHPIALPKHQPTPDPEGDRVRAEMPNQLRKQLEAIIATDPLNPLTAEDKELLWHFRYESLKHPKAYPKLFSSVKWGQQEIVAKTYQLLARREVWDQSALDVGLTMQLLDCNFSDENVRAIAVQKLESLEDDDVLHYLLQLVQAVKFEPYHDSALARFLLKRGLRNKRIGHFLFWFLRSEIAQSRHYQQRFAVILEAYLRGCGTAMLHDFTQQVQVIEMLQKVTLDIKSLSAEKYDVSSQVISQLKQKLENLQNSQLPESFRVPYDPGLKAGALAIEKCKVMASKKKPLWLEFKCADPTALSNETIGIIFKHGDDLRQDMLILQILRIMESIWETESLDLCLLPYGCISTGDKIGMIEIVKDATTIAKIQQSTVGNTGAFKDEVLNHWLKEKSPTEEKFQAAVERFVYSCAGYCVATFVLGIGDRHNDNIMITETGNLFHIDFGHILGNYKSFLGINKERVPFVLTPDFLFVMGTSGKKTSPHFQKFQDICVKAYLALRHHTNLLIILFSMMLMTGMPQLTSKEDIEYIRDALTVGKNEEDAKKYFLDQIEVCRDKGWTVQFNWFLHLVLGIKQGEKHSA

| Ki [µM] | Compound |
| --- | --- |
| 0.142 | CCn1cnc(CCNC(=O)Nc2nc3ccc(-c4cncc(C(F)(F)F)c4)cc3s2)c1 [Example 2-12, 1-[2-(1-Ethyl-1H-imidazol-4-yl)-ethyl]-3-[6-(5-trifluoromethyl-pyridin-3-yl)-benzothiazol-2-yl]-urea] |
| 0.02 | COc1ccc(-c2ccc3nc(NC(=O)NCCc4nnn(CCF)n4)sc3c2)cn1 [Example 2-2, 1-{2-[2-(2-Fluoro-ethyl)-2H-tetrazol-5-yl]-ethyl}-3-[6-(6-methoxy-pyridin-3-yl)-benzothiazol-2-yl]-urea] |
